Data published in patent US20240051937A1, “ISOINDOLINONE AMIDE COMPOUNDS USEFUL TO TREAT DISEASES ASSOCIATED WITH GSPT1” (Monte Rosa Therapeutics, Inc., priority 2021, published 2024).

Key:
Format in all cases: cell-based
Conditions in all cases: MM1S cells, 0.3, 3 and 30 μM, 6 hours
GSPT1 = GSPT1 (Homo sapiens, UniProt P15170+Q96SW2); assay: Selectivity determination by Western blot assay in MM1S cells: GSPT1; parameters: MM1S cells were purchased from ATCC (cat. Number CRL-2974); host or cells: MM1S cells
Experimental: (§1) MM1S cells were purchased from ATCC (cat. Number CRL-2974), sub-cultured in […] RPMI 1640 with 10% FBS, supplemented with Ix P/S and incubated at 37° C., […]. Compounds were stored as 10 mM DMSO stock. For the assay, MM1S cells (3 million cells/well) were plated in 6-well plates and incubated over night. Cells were treated with respective compounds using a serial dilution: 0.3 μM, 3 μM and 30 μM as well as a vehicle only (DMSO) control for 6 hours. Media with suspension cells was subsequently transferred to 15 mL conical tubes, wells rinsed twice with ice-cold PBS and merged with cell suspension in respective 15 mL conical tube. Cells were spinned down, supernatant aspirated, pellets resuspended in ice-cold PBS and transferred to microtubes. Cells were spinned down, supernatant aspirated and pellets resuspended in 120 μL RIPA lysis buffer supplemented with protease and phosphatase inhibitors. Cell lysates were incubated on ice for 20 minutes followed by centrifugation at >20,000×g for 5 min. Supernatants were transferred to fresh microtubes and stored at −80° C. Total protein concentration was determined using a BCA assay with a BSA standard curve and concentration of all samples was adjusted to 1 mg/mL. […] Chemiluminescence signals were then detected using a LAS-4000 system with default settings and signals quantified using Image Studio Lite software (version 5.2). […]

IKZF1 = target: T1, IKZF1 (Homo sapiens, UniProt Q13422+Q96SW2); assay: Selectivity determination by Western blot assay in MM1S cells: IKZF1; parameters: key: A represents no degradation observed at 30 μM; B represents trace degradation at 30 μM (below 20%); C represents weak degradation at 30 μM (below 50%); D represents degradation at 30 μM (>90%); E represents degradation at 3 μM (>90%); F represents degradation at 0.3 μM (>90%)
T1 construct: MM1S cells were purchased from ATCC (cat. Number CRL-2974); host or cells: MM1S cells
Experimental: as §1

IKZF3 = target: T2, IKZF3 (Homo sapiens, UniProt Q96SW2+Q9UKT9); assay: Selectivity determination by Western blot assay in MM1S cells: IKZF3; parameters: key: A represents no degradation observed at 30 μM; B represents trace degradation at 30 μM (below 20%); C represents weak degradation at 30 μM (below 50%); D represents degradation at 30 μM (>90%); E represents degradation at 3 μM (>90%); F represents degradation at 0.3 μM (>90%)
T2 construct: MM1S cells were purchased from ATCC (cat. Number CRL-2974); host or cells: MM1S cells
Experimental: as §1

CK1alpha = target: T3, CK1alpha (Homo sapiens, UniProt P48729+Q96SW2); assay: Selectivity determination by Western blot assay in MM1S cells: CK1alpha
T3 construct: MM1S cells were purchased from ATCC (cat. Number CRL-2974); host or cells: MM1S cells
Experimental: as §1

ZFP91 = target: T4, ZFP91 (Homo sapiens, UniProt Q96JP5+Q96SW2); assay: Selectivity determination by Western blot assay in MM1S cells: ZFP91
T4 construct: MM1S cells were purchased from ATCC (cat. Number CRL-2974); host or cells: MM1S cells
Experimental: as §1

T2 sequence (Q9UKT9 whole entry): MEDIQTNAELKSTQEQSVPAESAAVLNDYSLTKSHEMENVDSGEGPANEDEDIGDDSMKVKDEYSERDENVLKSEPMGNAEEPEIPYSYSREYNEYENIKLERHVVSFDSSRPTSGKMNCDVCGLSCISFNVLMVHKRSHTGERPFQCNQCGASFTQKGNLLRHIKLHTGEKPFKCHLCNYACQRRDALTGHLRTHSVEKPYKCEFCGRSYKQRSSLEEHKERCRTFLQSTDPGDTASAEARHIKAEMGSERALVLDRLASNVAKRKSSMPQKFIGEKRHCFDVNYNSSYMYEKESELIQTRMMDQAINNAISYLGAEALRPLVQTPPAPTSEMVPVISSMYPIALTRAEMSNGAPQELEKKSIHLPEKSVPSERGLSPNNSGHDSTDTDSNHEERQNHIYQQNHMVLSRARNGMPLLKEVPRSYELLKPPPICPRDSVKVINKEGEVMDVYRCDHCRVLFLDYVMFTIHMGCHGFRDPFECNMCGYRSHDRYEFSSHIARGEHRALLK
T2 sequence (Q96SW2 whole entry): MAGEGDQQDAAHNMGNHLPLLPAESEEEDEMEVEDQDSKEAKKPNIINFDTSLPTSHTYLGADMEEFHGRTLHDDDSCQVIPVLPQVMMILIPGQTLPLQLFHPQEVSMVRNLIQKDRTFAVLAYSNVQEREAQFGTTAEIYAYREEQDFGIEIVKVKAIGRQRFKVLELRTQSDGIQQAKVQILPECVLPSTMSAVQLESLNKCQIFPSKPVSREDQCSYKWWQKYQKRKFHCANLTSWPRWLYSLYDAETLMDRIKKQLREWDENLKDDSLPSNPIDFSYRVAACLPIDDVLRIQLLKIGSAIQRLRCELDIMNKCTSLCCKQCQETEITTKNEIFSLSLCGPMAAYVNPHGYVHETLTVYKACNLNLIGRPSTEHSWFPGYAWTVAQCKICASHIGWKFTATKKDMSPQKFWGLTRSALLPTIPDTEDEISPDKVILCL
T2 sequence (Q16531 whole entry partner): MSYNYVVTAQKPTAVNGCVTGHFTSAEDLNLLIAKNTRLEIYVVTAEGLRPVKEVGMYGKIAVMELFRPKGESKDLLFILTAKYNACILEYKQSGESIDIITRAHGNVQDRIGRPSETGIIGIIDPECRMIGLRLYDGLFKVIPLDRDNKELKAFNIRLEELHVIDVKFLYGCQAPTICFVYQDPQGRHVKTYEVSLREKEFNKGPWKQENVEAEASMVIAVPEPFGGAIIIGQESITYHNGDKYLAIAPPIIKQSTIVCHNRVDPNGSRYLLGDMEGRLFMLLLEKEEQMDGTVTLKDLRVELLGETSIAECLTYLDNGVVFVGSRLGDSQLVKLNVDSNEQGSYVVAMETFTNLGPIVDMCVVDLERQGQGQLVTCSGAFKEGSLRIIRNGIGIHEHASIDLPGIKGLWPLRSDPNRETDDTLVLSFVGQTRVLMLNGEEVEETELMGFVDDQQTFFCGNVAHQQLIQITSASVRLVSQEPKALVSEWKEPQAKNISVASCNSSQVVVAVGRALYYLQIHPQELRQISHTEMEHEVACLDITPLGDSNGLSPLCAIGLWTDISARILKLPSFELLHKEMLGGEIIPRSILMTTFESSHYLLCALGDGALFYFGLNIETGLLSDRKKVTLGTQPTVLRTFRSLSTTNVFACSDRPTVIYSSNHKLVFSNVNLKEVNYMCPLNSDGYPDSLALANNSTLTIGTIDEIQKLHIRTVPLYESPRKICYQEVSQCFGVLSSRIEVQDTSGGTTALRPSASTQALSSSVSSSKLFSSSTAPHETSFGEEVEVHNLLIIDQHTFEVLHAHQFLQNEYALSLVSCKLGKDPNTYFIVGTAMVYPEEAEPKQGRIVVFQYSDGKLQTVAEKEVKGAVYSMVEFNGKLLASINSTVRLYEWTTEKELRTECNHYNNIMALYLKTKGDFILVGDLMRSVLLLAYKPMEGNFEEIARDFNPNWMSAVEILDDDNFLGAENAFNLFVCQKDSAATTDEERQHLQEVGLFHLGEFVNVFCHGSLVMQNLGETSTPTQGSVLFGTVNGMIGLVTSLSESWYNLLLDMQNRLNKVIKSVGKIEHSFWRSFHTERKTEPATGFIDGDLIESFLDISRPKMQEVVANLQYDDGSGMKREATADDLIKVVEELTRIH
T3 sequence (P48729 whole entry): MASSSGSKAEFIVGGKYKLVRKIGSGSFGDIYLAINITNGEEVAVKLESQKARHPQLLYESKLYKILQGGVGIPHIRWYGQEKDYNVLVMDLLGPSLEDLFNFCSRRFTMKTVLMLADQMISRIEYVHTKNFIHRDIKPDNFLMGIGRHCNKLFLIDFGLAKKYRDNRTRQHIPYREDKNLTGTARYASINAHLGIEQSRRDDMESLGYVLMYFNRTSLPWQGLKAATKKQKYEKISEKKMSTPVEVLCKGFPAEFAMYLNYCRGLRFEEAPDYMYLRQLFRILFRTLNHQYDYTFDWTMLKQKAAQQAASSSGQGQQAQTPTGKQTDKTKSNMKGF
T3 sequence (Q96SW2 whole entry): as the sequence (Q96SW2 whole entry) above
T3 sequence (Q16531 whole entry partner): as the sequence (Q16531 whole entry partner) above
T4 sequence (Q96JP5 2-570 limits assumed): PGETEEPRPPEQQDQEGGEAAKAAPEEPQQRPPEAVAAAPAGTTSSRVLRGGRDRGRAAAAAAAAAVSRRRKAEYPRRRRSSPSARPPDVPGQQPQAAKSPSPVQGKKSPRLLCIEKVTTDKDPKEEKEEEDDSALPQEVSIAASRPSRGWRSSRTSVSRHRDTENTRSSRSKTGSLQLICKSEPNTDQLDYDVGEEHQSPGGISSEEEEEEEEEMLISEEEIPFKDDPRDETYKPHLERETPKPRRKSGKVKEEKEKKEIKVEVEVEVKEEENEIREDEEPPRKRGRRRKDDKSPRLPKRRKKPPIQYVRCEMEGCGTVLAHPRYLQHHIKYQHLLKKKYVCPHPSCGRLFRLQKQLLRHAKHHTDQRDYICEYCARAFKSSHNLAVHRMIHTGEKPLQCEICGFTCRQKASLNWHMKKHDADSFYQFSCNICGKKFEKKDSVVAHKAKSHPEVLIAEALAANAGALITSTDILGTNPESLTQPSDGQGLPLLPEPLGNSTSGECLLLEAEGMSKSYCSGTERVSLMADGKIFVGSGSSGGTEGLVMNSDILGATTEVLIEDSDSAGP
T4 sequence (Q96SW2 whole entry): as the sequence (Q96SW2 whole entry) above
T4 sequence (Q16531 whole entry partner): as the sequence (Q16531 whole entry partner) above
T1 sequence (Q13422 whole entry): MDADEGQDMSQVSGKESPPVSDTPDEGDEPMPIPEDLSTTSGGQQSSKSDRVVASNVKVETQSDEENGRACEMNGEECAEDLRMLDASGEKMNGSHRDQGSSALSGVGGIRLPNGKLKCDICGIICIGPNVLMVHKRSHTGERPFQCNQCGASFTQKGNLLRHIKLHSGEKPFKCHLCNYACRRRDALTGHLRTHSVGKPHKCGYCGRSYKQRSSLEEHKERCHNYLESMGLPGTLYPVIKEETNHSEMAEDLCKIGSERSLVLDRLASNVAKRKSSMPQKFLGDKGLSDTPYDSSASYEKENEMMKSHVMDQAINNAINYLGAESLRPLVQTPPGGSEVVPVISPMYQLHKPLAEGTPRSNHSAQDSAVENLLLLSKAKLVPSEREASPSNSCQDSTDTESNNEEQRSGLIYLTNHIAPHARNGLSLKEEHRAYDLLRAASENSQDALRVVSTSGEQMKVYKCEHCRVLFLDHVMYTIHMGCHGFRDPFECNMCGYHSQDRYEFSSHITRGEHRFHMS
T1 sequence (Q96SW2 whole entry): as the sequence (Q96SW2 whole entry) above
T1 sequence (Q16531 whole entry partner): as the sequence (Q16531 whole entry partner) above
Sequence of GSPT1 (P15170 whole entry): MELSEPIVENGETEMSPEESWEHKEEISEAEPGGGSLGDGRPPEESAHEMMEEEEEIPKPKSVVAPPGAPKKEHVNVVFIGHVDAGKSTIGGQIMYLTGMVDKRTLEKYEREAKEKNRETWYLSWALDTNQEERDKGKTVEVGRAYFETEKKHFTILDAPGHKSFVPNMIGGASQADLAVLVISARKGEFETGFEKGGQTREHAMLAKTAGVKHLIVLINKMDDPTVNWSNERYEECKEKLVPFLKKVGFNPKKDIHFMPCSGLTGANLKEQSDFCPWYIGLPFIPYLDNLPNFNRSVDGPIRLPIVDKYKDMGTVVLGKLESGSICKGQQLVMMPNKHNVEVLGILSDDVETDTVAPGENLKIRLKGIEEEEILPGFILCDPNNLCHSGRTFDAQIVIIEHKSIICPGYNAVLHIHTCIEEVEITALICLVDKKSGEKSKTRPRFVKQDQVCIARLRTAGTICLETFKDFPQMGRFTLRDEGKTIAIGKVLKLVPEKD
Sequence of GSPT1 (Q96SW2 whole entry): as the sequence (Q96SW2 whole entry) above
Sequence of GSPT1 (Q16531 whole entry partner): as the sequence (Q16531 whole entry partner) above

Structure (SMILES) | GSPT1 degradation code (GSPT1) | IKZF1 degradation code (IKZF1) | IKZF3 degradation code (IKZF3) | CK1alpha degradation code (CK1alpha) | ZFP91 degradation code (ZFP91)
Cc1ccc(NC(=O)CCc2ccc3c(c2)C(=O)N(C2CCC(=O)NC2=O)C3)cc1Cl (stereo not shown) [Compound 1] | F (F represents degradation at 0.3 μM (>90%)) | A | A | B (B represents trace degradation at 30 μM (below 20%)) | B (B represents trace degradation at 30 μM (below 20%))
Cc1c(Cl)cc(NC(=O)CCc2ccc3c(c2)C(=O)N(C2CCC(=O)NC2=O)C3)cc1CN1CCOCC1 (stereo not shown) [Compound 2] | F (F represents degradation at 0.3 μM (>90%)) | A | C (C represents weak degradation at 30 μM (below 50%)) | C (C represents weak degradation at 30 μM (below 50%)) | C (C represents weak degradation at 30 μM (below 50%))
